# Test results from patent US20060135768A1, “Synthesis for hydroxyalkylated heterocyclic bases” (RIBAPHARM INC., priority 2002, published 2006).
# Assay: Solubility of the heterocyclic base (adenine) in reaction solvents
# Type: physicochemical
smiles,measurement,setting,value
Nc1ncnc2nc[nH]c12 [adenine],Solubility at 150° C.,solvent DEF,13.9 mg/mL
same,Solubiity at RT,solvent DEF,1.36 mg/mL
same,Solubility at 150° C.,solvent DMA,37.0 mg/mL
same,Solubiity at RT,solvent DMA,4.00 mg/mL
same,Solubility at 150° C.,solvent DMF,29.0 mg/mL
same,Solubiity at RT,solvent DMF,2.90 mg/mL
